Values quoted from earlier work, collected in publication PMC12281572.
Values joined by “and” are separate entries in the source; they are usually repeats but may differ in a detail not shown here. Identical values can stand only once.

Assay: FTIR, 4-fluorophenol as donor (the pK_BHX database, per the paper)
Settings: CCl4; 25 C

pK_BHX (log10 Kf of the 1:1 H-bond complex with 4-fluorophenol, by FTIR) | SMILES
0.99 log units | CC(C)(C)C#N
2.24 log units | CC(C)C(=O)N(C1CCCCC1)C1CCCCC1
0.02 log units | Cc1c(C)c(C)c(C)c(C)c1C
0.66 log units and 0.53 log units | CCOC(=O)c1ccc(C#N)cc1
1.42 log units | CC(C)(C)c1ccccn1
3.12 log units | Cc1cc[n+]([O-])cc1
0.02 log units | C1OCOCO1
0.72 log units | CC(=O)c1cccc(C(F)(F)F)c1
1.04 log units | CN(C)C(=O)C(F)(F)F
-0.06 log units | C1CSCSC1
0.75 log units | O=C(Cl)N(c1ccccc1)c1ccccc1
1.45 log units | CCOC(=O)N(c1ccccc1)c1ccccc1

SMILES | pK_BHX (log10 Kf of the 1:1 H-bond complex with 4-fluorophenol, by FTIR)
C1COCCOCCOCCO1 | 1.13 log units
CCN(CC)C(=O)SC | 1.56 log units
c1ccc2c(c1)OCCO2 | -0.23 log units
Cc1ccnc2c1ccc1c(C)ccnc12 | 3.34 log units
CN1CCN(C)C1=O | 2.46 log units
